Some test systems named below: 786-0; ACHN; CCRF-CEM; HCC 2998; HL-60; HOP-92; LOX IMVI; M14; NCI-H226; NCI-H23; OVCAR-4; SF-539; SN12C; TK-10; U-251; UACC-62.
Common to all, as to experiment: DTP human tumour cell line panel, 48 h

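Values below derive from 48-hour exposures of cells grown in 96-well plates, with endpoints linearly interpolated between the two concentrations bracketing the appropriate inhibition level. Abbreviation: GI50, concentration required for 50% inhibition of growth.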 Calls of active or inactive are those of the source. No stated cut-off is given here; in the data, active = GI50 up to about 1.1 µM and inactive = higher. A value given as a limit tells only on which side of the number the result lay.

As to `CCCCCCCSCC1C(=O)C23C(O)C1CCC2C12COC3(O)C(O)C1C(C)(C)CCC2O` (stereo not drawn), the GI50 (usually the concentration that inhibits growth by half) was 13.8 µM (inactive) in the assay on 786-0; 12.4 µM (inactive) in the assay on ACHN; 2.75 µM (inactive) in the assay on CCRF-CEM; 15 µM (inactive) in the assay with HCC 2998; 3.96 µM (inactive) in the assay on HL-60; 13.9 µM (inactive) in the assay with HOP-92. Further, the GI50 in the assay on LOX IMVI is 13.3 µM (inactive); in the assay with M14, 12.2 µM (inactive); in the assay with NCI-H226, 17.7 µM (inactive); with NCI-H23 it was 16.3 µM (inactive); with OVCAR-4 it was 11.8 µM (inactive); in the assay on SF-539 it was 13.2 µM (inactive). In addition, the GI50 is 8.41 µM (inactive) with SN12C, 15.9 µM (inactive) with TK-10, 10.7 µM (inactive) with U-251 and 11.5 µM (inactive) in the assay with UACC-62.
As for `C/C(=N/NC(=O)C(N)=O)C(CC(C(=O)Nc1ccccc1C)/C(C)=N\NC(=O)C(N)=O)C(=O)Nc1ccccc1C` (stereo not drawn), the GI50 with 786-0 was > 100 µM (inactive); in the assay on ACHN it was 83.2 µM (inactive); with CCRF-CEM it was > 100 µM (inactive); with HCC 2998 it was > 100 µM (inactive); in the assay with HL-60, > 100 µM (inactive); with HOP-92, 47.1 µM (inactive). In addition, the GI50 in the assay with LOX IMVI, with M14, in the assay with NCI-H226, in the assay on NCI-H23, in the assay on OVCAR-4 and in the assay with SF-539 was > 100 µM (inactive) in each case. In addition, the GI50 in the assay with SN12C, in the assay on TK-10 and with U-251 was > 100 µM (inactive) throughout.
In the case of `CCCC/C=C1\CCC(C)(CN(C)C)C1=O` (stereo not drawn), the GI50 in the assay with 786-0 was > 100 µM (inactive); with ACHN it was > 100 µM (inactive); in the assay on CCRF-CEM, > 100 µM (inactive); in the assay with HCC 2998, > 100 µM (inactive); in the assay with HL-60 it was 55.5 µM (inactive); in the assay with HOP-92, > 100 µM (inactive). Besides, the GI50 in the assay with M14, with NCI-H23, in the assay with OVCAR-4, in the assay on SF-539, in the assay on SN12C and in the assay with TK-10 was > 100 µM (inactive) throughout. For the same compound, the GI50 in the assay on U-251 and in the assay on UACC-62 was > 100 µM (inactive) in each case.
Regarding `CCOc1ccc(NC(=O)CCc2nnc(SC)o2)cc1`, the GI50 was > 100 µM (inactive) in the assay on 786-0; > 100 µM (inactive) in the assay on ACHN; > 100 µM (inactive) with CCRF-CEM; > 100 µM (inactive) in the assay on HCC 2998; > 100 µM (inactive) with HL-60; 82 µM (inactive) in the assay with HOP-92. The GI50 in the assay on LOX IMVI, in the assay on M14, in the assay on NCI-H226, with NCI-H23, in the assay on OVCAR-4 and with SF-539 was > 100 µM (inactive) throughout. In addition, the GI50 with SN12C, in the assay with TK-10, in the assay with U-251 and in the assay on UACC-62 was > 100 µM (inactive) throughout.
For `C=CCCCCCCCCCCCC1CCC(CC)N1` (stereo not drawn), the GI50 in the assay with 786-0 was 9.1 µM (inactive); in the assay with ACHN, 15.7 µM (inactive); with CCRF-CEM, 8.3 µM (inactive); in the assay on HCC 2998, 3.37 µM (inactive); with HL-60, 3.05 µM (inactive); in the assay on LOX IMVI, 9.66 µM (inactive). Moreover, the GI50 with M14 is 12.1 µM (inactive); with NCI-H226 it was 28.5 µM (inactive); in the assay on NCI-H23, 14.4 µM (inactive); in the assay on OVCAR-4, 4.79 µM (inactive); in the assay with SF-539, 10.6 µM (inactive); in the assay on SN12C, 11.5 µM (inactive). The GI50 is 16.8 µM (inactive) in the assay with TK-10, 10.9 µM (inactive) in the assay on U-251 and 14.2 µM (inactive) in the assay on UACC-62.
In the case of `Cc1cc(C)c(C(=O)/C(=C/c2ccccc2)c2ccccc2)c(C)c1`, the GI50 is 56.2 µM (inactive) in the assay on 786-0; 40.7 µM (inactive) in the assay on ACHN; 35.1 µM (inactive) in the assay on CCRF-CEM; 27.5 µM (inactive) in the assay on HL-60; 32.8 µM (inactive) in the assay on HOP-92; 49.2 µM (inactive) with M14. In addition, the GI50 in the assay with NCI-H226 was 50.9 µM (inactive); in the assay on NCI-H23, 40 µM (inactive); with OVCAR-4, 57.9 µM (inactive); with SF-539 it was 57.5 µM (inactive); in the assay on SN12C, 41.7 µM (inactive); in the assay with TK-10 it was 93.5 µM (inactive). The GI50 in the assay on U-251 is 39.9 µM (inactive); in the assay on UACC-62, > 100 µM (inactive).
As to `Cc1cc(/C=C/c2cc[n+](C)c3ccccc23)c(O)c2ncccc12`, the GI50 is 0.916 µM (active) in the assay on 786-0; 4.22 µM (inactive) in the assay on ACHN; 0.181 µM (active) in the assay with CCRF-CEM; 1.06 µM (active) in the assay with HCC 2998; 0.625 µM (active) with HL-60; 2.99 µM (inactive) with HOP-92. Moreover, the GI50 is 1.35 µM (inactive) with LOX IMVI; 1.44 µM (inactive) in the assay on M14; 1.87 µM (inactive) in the assay with NCI-H226; 1.7 µM (inactive) in the assay with NCI-H23; 7.94 µM (inactive) in the assay with OVCAR-4; 0.426 µM (active) in the assay with SF-539. Moreover, the GI50 with SN12C is 1.09 µM (active); in the assay with TK-10 it was 4.28 µM (inactive); in the assay with U-251 it was 1.23 µM (inactive); with UACC-62, 1.99 µM (inactive).
Consider `CCSC1=CC(Cc2ccc(OC)cc2)N(C(=O)OC)C1` (stereo not drawn), for which the GI50 was > 100 µM (inactive) in the assay with 786-0; > 100 µM (inactive) in the assay with ACHN; 49.7 µM (inactive) with CCRF-CEM; > 100 µM (inactive) in the assay on HCC 2998; 21.9 µM (inactive) in the assay with HL-60; 55.2 µM (inactive) in the assay with HOP-92. The GI50 in the assay on LOX IMVI was 36.3 µM (inactive); in the assay with M14, > 100 µM (inactive); in the assay with NCI-H226, > 100 µM (inactive); with NCI-H23, > 100 µM (inactive); in the assay on OVCAR-4 it was > 100 µM (inactive); in the assay with SF-539, > 100 µM (inactive). Also, the GI50 was > 100 µM (inactive) in the assay with SN12C, > 100 µM (inactive) in the assay with TK-10, > 100 µM (inactive) with U-251 and 65.8 µM (inactive) with UACC-62.
Take `Cc1nc(C)c(C(=O)Nc2cccc3c2C(=O)NC3=O)cc1C(=O)Nc1cccc2c1C(=O)NC2=O`: the GI50 with 786-0, with ACHN, in the assay with CCRF-CEM, with HCC 2998, in the assay on HL-60 and with HOP-92 was > 100 µM (inactive) throughout. Further, the GI50 with LOX IMVI, in the assay with M14, in the assay on NCI-H226, with NCI-H23, with OVCAR-4 and in the assay on SF-539 was > 100 µM (inactive) each time. Moreover, the GI50 in the assay on SN12C, in the assay with TK-10, with U-251 and in the assay on UACC-62 was > 100 µM (inactive) in each case.
Take `COc1ccc2c(c1)CC[C@@H]1C2CC[C@]2(C)C(=O)NC(=O)CC12` (stereo partly drawn): the GI50 in the assay with 786-0 was > 100 µM (inactive); in the assay with ACHN, > 100 µM (inactive); with CCRF-CEM, 88.3 µM (inactive); with HCC 2998 it was 53.3 µM (inactive); in the assay on HL-60, 43.6 µM (inactive); in the assay on HOP-92, > 100 µM (inactive). Moreover, the GI50 in the assay on LOX IMVI was > 100 µM (inactive); with M14, > 100 µM (inactive); with NCI-H226, 67.5 µM (inactive); in the assay with NCI-H23, > 100 µM (inactive); in the assay with SF-539, > 100 µM (inactive); in the assay with SN12C, > 100 µM (inactive). Besides, the GI50 in the assay on TK-10, in the assay on U-251 and with UACC-62 was > 100 µM (inactive) throughout.
As to `COC(=O)N/N=C(\C)c1c(O)cc(C)oc1=O`, the GI50 was 56.2 µM (inactive) in the assay with 786-0; 25.8 µM (inactive) with ACHN; 46 µM (inactive) in the assay on CCRF-CEM; 43.9 µM (inactive) in the assay on HCC 2998; 45.2 µM (inactive) in the assay with HL-60; > 100 µM (inactive) in the assay on HOP-92. Besides, the GI50 with LOX IMVI is 7.85 µM (inactive); in the assay on M14, 35.2 µM (inactive); with NCI-H226, > 100 µM (inactive); in the assay on NCI-H23, > 100 µM (inactive); with OVCAR-4, > 100 µM (inactive); with SF-539, 14.7 µM (inactive). In addition, the GI50 in the assay with SN12C was 78.5 µM (inactive); in the assay with TK-10, 33.2 µM (inactive); in the assay with U-251, 28.8 µM (inactive); in the assay on UACC-62, 5.62 µM (inactive).
For the compound `O=C1C2C3C=C4c5ccccc5N(c5ccccc5)C4(C2C(=O)N1c1ccc(Br)cc1)[C@H]1C(=O)N(c2ccc(Br)cc2)C(=O)[C@@H]31` (stereo partly drawn), the GI50 is > 100 µM (inactive) in the assay with 786-0; > 100 µM (inactive) in the assay with CCRF-CEM; > 100 µM (inactive) with HL-60; 84.3 µM (inactive) in the assay with HOP-92; 87.9 µM (inactive) in the assay with LOX IMVI; 43.4 µM (inactive) in the assay on M14. Besides, the GI50 was > 100 µM (inactive) in the assay with NCI-H226; > 100 µM (inactive) with NCI-H23; > 100 µM (inactive) in the assay with OVCAR-4; > 100 µM (inactive) in the assay with SF-539; > 100 µM (inactive) in the assay with SN12C; 89.3 µM (inactive) in the assay with TK-10. Moreover, the GI50 with U-251 and in the assay on UACC-62 was > 100 µM (inactive) in each case.
Take `COC(=O)[C@@]12OC[C@]34C([C@@H](O)C1O)[C@@]1(C)CC(=O)C(OC(=O)/C=C(/c5ccccc5)C(F)(F)F)=C(C)C1C[C@H]3OC(=O)[C@H](O)[C@H]42` (stereo partly drawn): the GI50 was 9.04 µM (inactive) in the assay with 786-0; 13.9 µM (inactive) in the assay on ACHN; 8.71 µM (inactive) in the assay on CCRF-CEM; 3.44 µM (inactive) with HCC 2998; 1.16 µM (inactive) with HL-60; 5.86 µM (inactive) with HOP-92. Also, the GI50 in the assay on M14 was 8.77 µM (inactive); in the assay with NCI-H226 it was 6.5 µM (inactive); in the assay with NCI-H23 it was 4.56 µM (inactive); in the assay on OVCAR-4, 17.7 µM (inactive); with SF-539, 3.79 µM (inactive); with SN12C, 7.93 µM (inactive). The GI50 is 10.1 µM (inactive) in the assay on TK-10, 6.68 µM (inactive) with U-251 and 2.36 µM (inactive) in the assay on UACC-62.

For the origin of these results see ChEMBL document CHEMBL1201862, “PubChem BioAssay data set” (2004).
